Test results reported in ChEMBL document CHEMBL1130592, “The synthesis and biological activity of a novel series of diazepine MMP inhibitors” (Bioorg Med Chem Lett, 1998).
pIC50: −log10 of the molar value.

Experiments:
Collagenase 3 = Collagenase 3 (Homo sapiens, UniProt P45452)
Description: Inhibition of matrix metalloprotease-13 (MMP-13)

[1] = molecular target: Matrix metalloproteinase-9 (Homo sapiens, UniProt P14780); assay: Inhibition of matrix metalloprotease-9 (MMP-9)
Interstitial collagenase = molecular target: T1, Interstitial collagenase (Homo sapiens, UniProt P03956); assay: Inhibition of matrix metalloprotease-1 (MMP-1)
T1 sequence (P03956 whole entry): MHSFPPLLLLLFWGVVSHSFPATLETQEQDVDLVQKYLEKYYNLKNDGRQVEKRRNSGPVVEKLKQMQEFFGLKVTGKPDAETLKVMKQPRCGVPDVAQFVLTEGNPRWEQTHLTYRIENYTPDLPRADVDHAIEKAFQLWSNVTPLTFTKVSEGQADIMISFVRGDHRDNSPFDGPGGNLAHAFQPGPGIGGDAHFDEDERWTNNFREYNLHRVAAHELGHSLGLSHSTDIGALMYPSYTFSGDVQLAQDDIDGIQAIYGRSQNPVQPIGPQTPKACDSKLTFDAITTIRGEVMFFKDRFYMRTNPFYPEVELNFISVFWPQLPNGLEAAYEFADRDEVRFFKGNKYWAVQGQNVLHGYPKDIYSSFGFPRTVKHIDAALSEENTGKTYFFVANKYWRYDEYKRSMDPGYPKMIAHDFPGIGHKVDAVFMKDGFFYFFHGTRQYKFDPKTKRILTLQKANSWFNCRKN

Sequence of Matrix metalloproteinase-9 (P14780 whole entry): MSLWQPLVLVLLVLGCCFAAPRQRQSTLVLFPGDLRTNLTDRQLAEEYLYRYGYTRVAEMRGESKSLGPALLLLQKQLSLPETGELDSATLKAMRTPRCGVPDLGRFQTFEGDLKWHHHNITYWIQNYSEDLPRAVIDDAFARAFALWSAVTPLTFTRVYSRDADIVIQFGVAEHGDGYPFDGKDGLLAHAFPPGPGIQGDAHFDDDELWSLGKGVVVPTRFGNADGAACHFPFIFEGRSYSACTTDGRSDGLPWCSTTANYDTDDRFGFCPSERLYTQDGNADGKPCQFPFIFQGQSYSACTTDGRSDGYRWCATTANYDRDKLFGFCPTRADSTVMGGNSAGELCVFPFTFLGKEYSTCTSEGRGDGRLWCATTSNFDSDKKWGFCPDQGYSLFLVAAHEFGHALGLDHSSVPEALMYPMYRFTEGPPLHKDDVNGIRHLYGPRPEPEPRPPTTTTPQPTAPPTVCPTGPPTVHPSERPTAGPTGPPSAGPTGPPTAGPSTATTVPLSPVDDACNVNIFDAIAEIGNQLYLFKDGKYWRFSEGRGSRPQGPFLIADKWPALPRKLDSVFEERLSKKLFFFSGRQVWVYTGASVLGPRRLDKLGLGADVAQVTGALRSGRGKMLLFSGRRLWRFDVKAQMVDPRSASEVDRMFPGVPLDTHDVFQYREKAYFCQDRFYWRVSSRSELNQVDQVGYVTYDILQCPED

With `COc1ccc(S(=O)(=O)N2CCCN(C(=O)c3ccccc3)CC2C(=O)NO)cc1` (stereo unspecified) as the molecule, how does the pIC50 (Collagenase 3) read?
Its pIC50 is 8.66.

What about the pIC50 [1] of the same molecule?
The pIC50 was 8.70.

And the pIC50 (Interstitial collagenase)?
The pIC50 was 7.35.

`COc1ccc(S(=O)(=O)N2CCCN(C(=O)Nc3ccccc3)CC2C(=O)NO)cc1` (stereo unspecified) was tested. Which pIC50 (Collagenase 3) did it give?
The pIC50 was 7.77.

What about the pIC50 [1] of the same molecule?
Its pIC50 is 7.74.

And the pIC50 (Interstitial collagenase)?
The pIC50 was 6.51.

`COc1ccc(S(=O)(=O)N2CCCNCC2C(=O)NO)cc1` (stereo unspecified) was tested. Which pIC50 (Collagenase 3) did it give?
The pIC50 was 8.29.

What about the pIC50 [1] of the same molecule?
Its pIC50 is 7.22.

And the pIC50 (Interstitial collagenase)?
The pIC50 was 7.04.

Which results are given for `COc1ccc(S(=O)(=O)N2CCCN(Cc3ccccc3)CC2C(=O)NO)cc1` (stereo unspecified)?
pIC50 (Collagenase 3): 7.19; pIC50 [1]: 7.51; pIC50 (Interstitial collagenase): 6.35

What does the source list for `COc1ccc(S(=O)(=O)N2CCCN(C(=O)CN)CC2C(=O)NO)cc1` (stereo unspecified)?
pIC50 (Collagenase 3): 7.34; pIC50 [1]: 6.80; pIC50 (Interstitial collagenase): 6.15

With `COc1ccc(S(=O)(=O)N2CCCN(C(=O)CNC(=O)OC(C)(C)C)CC2C(=O)NO)cc1` (stereo unspecified) as the molecule, how does the pIC50 (Collagenase 3) read?
Its pIC50 is 7.80.

What about the pIC50 [1] of the same molecule?
Its pIC50 is 7.64.

What about the pIC50 (Interstitial collagenase) of the same molecule?
Its pIC50 is 6.16.

With `COc1ccc(S(=O)(=O)N2CCCN(C(=O)c3ccc(OC(F)(F)F)cc3)CC2C(=O)NO)cc1` (stereo unspecified) as the molecule, how does the pIC50 (Collagenase 3) read?
The pIC50 was 8.21.

And the pIC50 [1]?
Its pIC50 is 8.40.

What about the pIC50 (Interstitial collagenase) of the same molecule?
Its pIC50 is 6.89.

What does the source list for `COc1ccc(S(=O)(=O)N2CCCN(C(=O)N[C@@H](C)c3ccccc3)CC2C(=O)NO)cc1` (stereo partly specified)?
pIC50 (Collagenase 3): 7.98; pIC50 [1]: 8.04; pIC50 (Interstitial collagenase): 6.51

How did the pIC50 (Collagenase 3) turn out when `O=C(NO)C1CN(C(=O)c2ccccc2)CCCN1S(=O)(=O)c1ccc(Oc2ccccc2)cc1` (stereo unspecified) was run?
The pIC50 was 8.89.

And the pIC50 [1]?
Its pIC50 is 8.92.

What about the pIC50 (Interstitial collagenase) of the same molecule?
Its pIC50 is 7.66.

`COc1ccc(S(=O)(=O)N2CCCN(C(=O)OC(C)(C)C)CC2C(=O)NO)cc1` (stereo unspecified) was tested. Which pIC50 (Collagenase 3) did it give?
Its pIC50 is 7.59.

And the pIC50 [1]?
The pIC50 was 8.04.

What about the pIC50 (Interstitial collagenase) of the same molecule?
Its pIC50 is 6.21.

`COc1ccc(S(=O)(=O)N2CCCN(C(=O)C(C)(C)C)CC2C(=O)NO)cc1` (stereo unspecified) was tested. Which pIC50 (Collagenase 3) did it give?
Its pIC50 is 7.96.

And the pIC50 [1]?
Its pIC50 is 8.32.

What about the pIC50 (Interstitial collagenase) of the same molecule?
Its pIC50 is 6.60.

With `COc1ccc(S(=O)(=O)N2CCCN(C(=O)c3ccccc3-c3ccccc3)CC2C(=O)NO)cc1` (stereo unspecified) as the molecule, how does the pIC50 (Collagenase 3) read?
The pIC50 was 8.34.

And the pIC50 [1]?
Its pIC50 is 8.48.

And the pIC50 (Interstitial collagenase)?
Its pIC50 is 6.94.
